Data on two compounds can be found in patent publication US20120015923A1, “USE OF ANDROGRAPHOLIDE COMPOUNDS FOR TREATING INFLAMMATION AND AIRWAY DISORDERS” (NATIONAL UNIVERSITY OF SINGAPORE, priority 2009, published 2012).

Structures are written as SMILES.

Test [1] concerns total IgE and OVA-specific IgE, IgG1, and IgG2a in serum. Put plainly: Serum Ig levels (ELISA), OVA mouse asthma model. The test is classed as in vivo, BALB/c mice. As to conditions: OVA-challenged mice, serum 24 hours after last OVA aerosol; for serum OVA-specific IgE level: DDAG even at lowest dose 0.1 mg/kg. The method, then:
Blood collected from the hearts were allowed to clot for at least 4 h. Centrifugation at 3000 rpm for 5 min at 4° C. was then performed on all blood samples. The supernatant, which is the serum, was extracted carefully and stored at −80° C. The samples were kept for ELISA.
Mice were anesthetized 24 hours after the last aerosol challenge and bronchoalveolar lavage (BAL) was performed as described above. BAL fluid total and differential cell counts, and cytokine and chemokine levels were determined as described above. Blood was collected by cardiac puncture, and serum levels of total IgE and OVA-specific IgE, IgG1, and IgG2a levels were determined.
Levels of total IgE and OVA-specific IgE, IgG 1 , and IgG2a in serum were measured. 96-well ELISA plate coated with either 50 μl of capture antibody (for total IgE, 1:250 dilution with 1 M Na2CO3) or 50 μl of 20 μg/ml OVA (for OVA-specific IgE, IgG1, and IgG2a) overnight at 4° C. Next day, the plate was washed with washing buffer (PBS with 0.05% Tween-20 for total IgE; PBS with 0.1% Tween-20 for OVA-specific IgE) and blocked with 300 μl 10% FBS in PBS for 2 hr at room temperature. After blocking, standards (only for total IgE) and serum samples were loaded into respective wells and incubated for 2 h. Followed by washing, respective detective antibodies were added and incubated for 1 h, followed by 45 min incubation of HRP-conjugate antibody for 45 min in the dark. Substrates were then added for 30 min in the dark with mild shaking. Lastly, 50 μl of stopping solution (1 M H2SO4) was added to stop the reaction. The optical density of each well in the plate was read at 450 nm with λ correction at 570 nm. The detection limit for total IgE was 2 ng/ml.

The subject of a further test is OVA-induced AHR. Put plainly: Airway hyper-responsiveness (AHR) to intravenous methacholine. The settings on record: 1 mg/kg; for OVA-induced airway hyperresponsiveness (AHR) to methacholine: OVA-challenged mice. The test is classed as in vivo, BALB/c mice. The procedure: Mice were anesthetized and tracheotomy was performed as described above. The internal jugular vein was cannulated and connected to a microsyringe for intravenous methacholine administration. Airway resistance (RI) and dynamic compliance (Cdyn) in response to increasing concentrations of mechacholine were recorded using a whole body plethysmograph chamber (Buxco, Sharon, Conn.) and ventilated mechanically by a ventilator via the tube that was inserted into the trachea at a tidal volume of 200 μl/breadth and a breathing rate of 150/min. Airflow and pressure changes were detected by respective transducers, recorded and analyzed by Biosystem XA software (Buxco, Sharon, Conn., USA). Results are expressed as a percentage of the respective basal values in response to phosphate buffered saline (PBS).

The subject of test [2] is IL-6, IL-8 and RANTES mRNA in normal human bronchial epithelial cells. Description: TNF-α-induced cytokine mRNA expression in normal human bronchial epithelial cells. The test is classed as cell-based. As to conditions: 10 ng/ml TNF-α for 12 hours; 30 μM. The method, then:
To determine the effects of andrograhpolide on OVA-specific immune responses in lymphocytes, thoracic lymph node cells were grown in bronchial epithelial bulletkit medium (Cambrex BioScience, Walkersvile, Md., USA), supplemented with bovine pituitary extract (2 ml), hydrocortisone (0.5 ml), recombinant human EGF (0.5 ml), epinephrine (0.5 ml), transferrin (0.5 ml), insulin (0.5 ml), retinoic acid (0.5 ml), triiodothyronine (0.5 ml), gentamycin sulfate (50 μg/ml), and amphotericin B (50 ng/ml). The cells were incubated in 5% CO2 incubator at 37° C., and subcultured at 80% to 85% confluency. Cells were exposed to 200 μg/ml OVA for 72 hours. Concanavalin A (Con A, 10 μug/ml) was used as a positive control. Supernatants from parallel triplicate cultures were analyzed for cytokine levels by ELISA. Normal human bronchial epithelial cells were cultured in optimized bronchial epithelial bulletkit medium with supplements (Lonza, Basel, Switzerland). Cells were pretreated with 30 μM andrographolide or vehicle (0.01% DMSO) 4 hours before stimulation with 10 ng/ml tumor necrosis factor (TNF)-α. Total and nuclear proteins, and mRNA were extracted from cells at specified time intervals.
PCR amplifications were then performed using the multiwell thermal cycler on 1 μl cDNA template in a 25 μl reaction volume. The reaction volume contained 10.5 μl nuclease-free water, 0.5 μl forward primer (10 μM), 0.5 μl reverse primer (10 μM) and 12.5 μl 2×PCR master mix (50 units/ml TaqDNA polymerase, 400 μM dATP, 400 μM dGTP, 400 μM dCTP, 400 μM dTTP and 3 mM MgCl2).

[3] abbreviates: DDAG significant at higher doses.
The mark [4] stands for this setting: OVA-challenged, mechanically ventilated mice.

Turning to `C=C1CC[C@@H]2[C@](C)(CO)[C@H](O)CC[C@@]2(C)[C@@H]1C/C=C1/C(=O)OC[C@H]1O` [Andrographolide], in test [1], the “serum OVA-specific IgG2a level” value was “inhibition” and the “serum OVA-specific IgE level” value is “significantly lowered”. Further, in test [1] (setting [3]), the “serum OVA-specific IgG1 level” value was “inhibition” and the “serum total IgE level” value is on record as “significantly lowered”. Besides, in the test with OVA-induced AHR, the “OVA-induced airway hyperresponsiveness (AHR) to methacholine” value is on record as “blocked”. Further, in test [2], the “TNF-α-induced up-regulation of IL-6 mRNA expression” value is “noticeably blocked”, the “TNF-α-induced up-regulation of IL-8 mRNA expression” value is reported as “noticeably blocked” and the “TNF-α-induced up-regulation of RANTES mRNA expression” value is “noticeably blocked”.

Take `C=C1CCC2C(C)(CO)C(O)CCC2(C)C1C=CC1=CCOC1=O` (stereo not drawn) [DDAG, 14-Deoxy-11,12-didehydroandrographolide]: in test [1], the “serum OVA-specific IgG2a level” value is “no effects” and the “serum OVA-specific IgE level” value is “strongly suppressed”. The “serum total IgE level” value in test [1] (setting [3]) was “to a lesser extent”. In the test on OVA-induced AHR, the “OVA-induced airway hyperresponsiveness (AHR) to methacholine” value is given as “significantly inhibited”. In the test on OVA-induced AHR (setting [4]), the “dynamic compliance (Cdyn) in response to methacholine” value is “restored” and the “lung resistance (RI) in response to methacholine” value is “dramatically reduced”. In addition, the “TNF-α-induced up-regulation of RANTES mRNA expression” value in test [2] was “strongly suppressed”.
